Test results: the supplement of paper PMC10307832

Columns and labels:
Experiment in all cases: relative viability (nuclei count vs DMSO), 5 days (fraction); higher = more cells survive
[1] = compound: CCN1C(=O)C2=CC(=C(N=C2N(C1=O)C3CC3)N)C(=O)N + CC1(C)CCC(c2ccc(Cl)cc2)=C(CN2CCN(c3ccc(C(=O)NS(=O)(=O)c4ccc(N[C@H](CCN5CCOCC5)CSc5ccccc5)c(S(=O)(=O)C(F)(F)F)c4)cc3)CC2)C1 [Navitoclax] (partner 0.5 µM)
Summary of the method: (§1)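 After 5 days of treatment, lung cancer cells in 1536-well plates were fixed and stained in a single step (final 0.05% Triton X-100, 1% formaldehyde, 1 ug/ml Hoechst) and their nuclei counted on 4× images. Treatment had been applied by pin tool the day after seeding as one drug alone or as a fixed anchor-drug dose with five library-drug doses (not always all listed) in √10 steps. Relative viability is the nuclei count of treated wells divided by that of vehicle wells, and values are medians of duplicate plates.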

[2] = compound: CCN1C(=O)C2=CC(=C(N=C2N(C1=O)C3CC3)N)C(=O)N + O=C(c1cc(Cc2n[nH]c(=O)c3ccccc23)ccc1F)N1CCN(C(=O)C2CC2)CC1 [Olaparib] (partner 8 µM)
Summary of the method: as §1

[3] = compound: CCN1C(=O)C2=CC(=C(N=C2N(C1=O)C3CC3)N)C(=O)N + Cc1cc(Nc2cc(N3CCN(C)CC3)nc(Sc3ccc(NC(=O)C4CC4)cc3)n2)n[nH]1 [Tozasertib] (partner 0.1 µM)
Summary of the method: as §1

[4] = compound: CCN1C(=O)C2=CC(=C(N=C2N(C1=O)C3CC3)N)C(=O)N + CC(=O)Nc1cccc(-n2c(=O)n(C3CC3)c(=O)c3c(Nc4ccc(I)cc4F)n(C)c(=O)c(C)c32)c1 [Trametinib] (partner 0.02 µM)
Summary of the method: as §1

[5] = compound: CCN1C(=O)C2=CC(=C(N=C2N(C1=O)C3CC3)N)C(=O)N + COc1cccc2cc(-c3nc([C@H]4CC[C@H](C(=O)O)CC4)n4ncnc(N)c34)[nH]c12 [OSI-027] (partner 0.5 µM)
Summary of the method: as §1

Cell Line | relative viability ([1]; first compound 0.253 µM) | relative viability ([1]; first compound 0.8 µM) | relative viability ([1]; first compound 2.53 µM) | relative viability ([1]; first compound 8 µM) | relative viability ([2]; first compound 0.253 µM) | relative viability ([2]; first compound 0.8 µM) | relative viability ([2]; first compound 2.53 µM) | relative viability ([2]; first compound 8 µM) | relative viability ([3]; first compound 0.253 µM) | relative viability ([3]; first compound 0.8 µM) | relative viability ([3]; first compound 2.53 µM) | relative viability ([3]; first compound 8 µM) | relative viability ([4]; first compound 0.253 µM) | relative viability ([4]; first compound 0.8 µM) | relative viability ([4]; first compound 2.53 µM) | relative viability ([4]; first compound 8 µM) | relative viability ([5]; first compound 0.253 µM) | relative viability ([5]; first compound 0.8 µM) | relative viability ([5]; first compound 2.53 µM) | relative viability ([5]; first compound 8 µM)
NCI-H2170 | 0.576 | 0.544 | 0.608 | 0.595 | 0.573 | 0.646 | 0.565 | 0.601 | 0.752 | 0.788 | 0.692 | 0.632 | 0.866 | 0.817 | 0.891 | 1.01 | 0.278 | 0.707 | 0.72 | 0.664
NCI-H2228 | 0.996 | 1.29 | 0.925 | 0.838 | 0.827 | 0.723 | 0.577 | 0.282 | 0.205 | 0.189 | 0.233 | 0.162 | 0.37 | 0.597 | 0.359 | 0.594 | 0.557 | 0.674 | 0.633 | 0.645
NCI-H2347 | 0.816 | 0.871 | 0.801 | 0.749 | 0.576 | 0.612 | 0.55 | 0.518 | 0.666 | 0.61 | 0.572 | 0.482 | 0.183 | 0.299 | 0.307 | 0.307 | 0.481 | 0.344 | 0.384 | 0.346
NCI-H2405 | 1.13 | 0.882 | 1.01 | 1.07 | 0.9 | – | 0.904 | 0.91 | 0.823 | 0.777 | 0.757 | 0.732 | 0.689 | – | 0.661 | 0.602 | 0.664 | 0.667 | 0.604 | 0.616
NCI-H3122 | 1.06 | 1.02 | 1.02 | 1.01 | 0.636 | 0.659 | 0.624 | 0.581 | 0.393 | 0.369 | 0.376 | 0.533 | 0.224 | 0.21 | 0.266 | 0.224 | 0.888 | 0.948 | 0.905 | 0.93
PC-3 [JPC-3] | 0.747 | 0.838 | 0.861 | 0.755 | 1.13 | – | 1.18 | 1.21 | 0.911 | 0.872 | 0.925 | 0.869 | 0.686 | – | 0.686 | 0.736 | 0.746 | 0.85 | 0.735 | 0.791
PC-14 | 1.01 | 1.06 | 0.935 | 0.956 | 0.196 | 0.26 | 0.306 | 0.308 | 0.597 | 0.604 | 0.525 | 0.64 | 0.743 | 0.721 | 0.768 | 0.715 | 0.856 | 0.799 | 0.831 | 0.907
RERF-LC-KJ | 1.21 | 0.947 | 0.767 | 0.923 | 0.887 | 0.89 | 0.883 | 0.897 | 0.498 | 0.499 | 0.479 | 0.441 | 0.697 | 0.793 | 0.751 | 0.847 | 0.6 | 0.638 | 0.584 | 0.632
SK-LU-1 | 0.797 | 0.855 | 0.977 | 0.865 | 0.458 | 0.446 | 0.429 | 0.493 | 0.349 | 0.305 | 0.324 | 0.306 | 0.482 | 0.555 | 0.516 | 0.489 | 0.414 | 0.381 | 0.353 | 0.369
SK-MES-1 | 1.03 | 1.28 | 1.22 | 1.27 | 0.77 | 0.76 | 0.713 | 0.665 | 0.902 | 0.931 | 0.85 | 0.918 | 0.625 | 0.533 | 0.557 | 0.517 | 0.626 | 0.564 | 0.588 | 0.583
SW 1573 | 0.949 | 0.977 | 0.919 | 0.979 | 0.748 | 0.431 | 0.519 | 0.532 | 0.172 | 0.174 | 0.142 | 0.219 | 0.548 | 0.601 | 0.599 | 0.52 | 0.534 | 0.612 | 0.675 | 0.587
UMC-11 | 0.312 | 0.277 | 0.308 | 0.324 | 0.376 | 0.337 | 0.312 | 0.365 | 0.2 | 0.213 | 0.188 | 0.206 | 0.798 | 0.701 | 0.695 | 0.636 | 0.5 | 0.463 | 0.506 | 0.521
